Biological target: T1, MD-2 (measured as TLR4/MD-2 complex) (Homo sapiens, UniProt Q9Y6Y9)
T1 construct: gene LY96; recombinant human TLR4/MD-2; His-Flag TLR4/MD-2 protein; with TLR4
Experiment: SPR (Biacore T200, CM5 chip, immobilised TLR4/MD-2 complex)
Assay type: binding

T1 sequence (Q9Y6Y9 19-160): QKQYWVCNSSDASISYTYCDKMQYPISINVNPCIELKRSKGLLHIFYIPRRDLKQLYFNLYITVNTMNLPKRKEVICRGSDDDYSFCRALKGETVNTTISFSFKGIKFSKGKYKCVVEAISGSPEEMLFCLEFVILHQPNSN
T1 sequence (O00206 24-839 partner): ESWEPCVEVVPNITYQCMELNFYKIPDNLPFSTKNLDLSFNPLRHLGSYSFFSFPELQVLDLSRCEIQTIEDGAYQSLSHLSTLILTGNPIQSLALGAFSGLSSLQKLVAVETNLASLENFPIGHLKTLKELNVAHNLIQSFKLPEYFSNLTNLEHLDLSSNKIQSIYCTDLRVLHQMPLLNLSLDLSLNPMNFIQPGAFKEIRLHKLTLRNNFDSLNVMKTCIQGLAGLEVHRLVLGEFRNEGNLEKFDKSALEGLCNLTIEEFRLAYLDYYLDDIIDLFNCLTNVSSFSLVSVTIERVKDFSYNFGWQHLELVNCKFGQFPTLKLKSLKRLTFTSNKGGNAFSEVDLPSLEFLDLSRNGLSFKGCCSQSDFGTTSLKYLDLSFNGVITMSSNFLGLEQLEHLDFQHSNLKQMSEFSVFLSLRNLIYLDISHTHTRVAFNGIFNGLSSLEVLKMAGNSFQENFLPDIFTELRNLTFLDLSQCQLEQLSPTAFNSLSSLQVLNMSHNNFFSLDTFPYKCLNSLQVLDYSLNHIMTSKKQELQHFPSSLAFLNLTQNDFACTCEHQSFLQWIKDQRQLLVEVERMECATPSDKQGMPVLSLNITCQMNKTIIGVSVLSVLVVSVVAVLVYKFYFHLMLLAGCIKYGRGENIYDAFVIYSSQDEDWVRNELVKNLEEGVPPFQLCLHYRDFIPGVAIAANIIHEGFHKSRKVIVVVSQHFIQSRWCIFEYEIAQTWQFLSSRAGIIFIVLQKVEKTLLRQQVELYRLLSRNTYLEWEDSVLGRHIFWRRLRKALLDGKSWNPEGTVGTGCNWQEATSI

## CC(C)=CCC[C@](C)(O)[C@H]1CC[C@]2(C)[C@@H]1[C@H](O)C[C@@H]1[C@@]3(C)CC[C@H](O[C@@H]4O[C@H](CO)[C@@H](O)[C@H](O)[C@H]4O)C(C)(C)[C@@H]3CC[C@]12C [G-Rh2, Ginsenoside Rh2]
  Kd: 71.2 µM

Source: publication PMC11395244, “Ginsenoside Rh2 Alleviates LPS-Induced Inflammatory Responses by Binding to TLR4/MD-2 and Blocking TLR4 Dimerization” (International Journal of Molecular Sciences, 2024)
